In test [1] the test system is Human NT2/D1 precursor cells (NT2/D1). As to the kind of experiment: Neuroplastogenicity assay using human model (NT2) neurons. The test is classed as cell-based. To be noted: RA-treated NT2 cells, 1 μM, 48 hours, vs 0.1% DMSO. The method, then:
The compound with formula A(XXXII) was assayed for neuroplastogenic potential using the following procedure. Human NT2/D1 precursor cells (NT2/D1) were purchased from the American Type Culture Collection (ATCC, Manassas, VA, USA). The neuronal differentiation was carried out as previously described (Roloff et al., 2015, PLOS ONE e0118536:1-14; Roloff et al., 2013, BMC Neuroscience 14:141-155) with minor modifications. First, NT2/D1 cells were seeded in T-25 suspension culture flasks (REF #690190, Greiner bio-one, Germany). Each flask contained a minimum of 5×10^6 cells in 10 ml of DMEM/F12 supplemented with 10% fetal bovine serum (FBS), 1% penicillin and streptomycin and 10 μM retinoic acid (RA medium) to start neuronal differentiation. The cells were cultured for 3 days in free floating medium. At the end of the incubation, cells were trypsinized and collected by centrifugation, mechanically dispersed, and counted. Counted cells were seeded on Poly D-Lysine (PDL) coated cover slips (12 mm; diameter round, Fisher Scientific; GG-12-PDL) containing minimum of 0.1×10^5 cells in culture medium without RA. The next day, culture medium was replaced with RA medium containing 2% of FBS. These cells were cultured for 5 days, with a change of RA medium two days later. For the neuronal outgrowth assay, after cells had successfully attached and established under coverslips, the RA medium was replaced with one of the following: (1) test molecules at one of two different concentrations (10 μm or 1 μm); (2) positive control ROCK inhibitor Y-27632, (Dihydrochloride, Sigma-Aldrich); (2) positive control ibuprofen (14883-1G; Sigma-Aldrich), or (4) negative control culture medium containing 2% of FBS. Cells under these conditions were incubated for 48 hours under standard conditions (37° C., 5% CO2) in an incubator prior to the immunofluorescent assay.
For the immunofluorescent assay, the treated cells housed under coverslips were collected after 48 hours of drug treatments. These coverslips washed with calcium chloride-free and magnesium chloride-free phosphate buffered saline (PBS) pH 7.4 (Gibco, #70011-044) and fixed using paraformaldehyde (PFA) 4% in PBS (#J61899, thermoscientific) for 15 min at room temperature (RT) and washed three times with 0.01% of Triton-X100 in PBS (PBST) to remove remaining PFA and to permeabilize the cells. Unspecific binding sites were blocked with 5% Bovine Serum Albumin (BSA) solution (#9048-46-8, Millipore) in PBST for 60 minutes at RT. Rabbit monoclonal antibody β-III-Tubulin (1:5,000, ab52623, Abcam) was applied overnight (O/N) at 4° C. […] Finally, the immunofluorescence images were detected by using Olympus VS110 slide scanner microscope. […]

A further test concerns the target 5-HT2A receptor (Homo sapiens, UniProt P28223). Nature of the test: 5-HT2A receptor radioligand competition assay (SPA). A general note: In a radioligand displacement assay an active substance lowers the binding of a labelled ligand.
Another test addresses T1, 5-HT1A receptor (Homo sapiens, UniProt P08908).
T1 construct: purchased Perkin Elmer 6110501400UA
T1 sequence (P08908 1-422): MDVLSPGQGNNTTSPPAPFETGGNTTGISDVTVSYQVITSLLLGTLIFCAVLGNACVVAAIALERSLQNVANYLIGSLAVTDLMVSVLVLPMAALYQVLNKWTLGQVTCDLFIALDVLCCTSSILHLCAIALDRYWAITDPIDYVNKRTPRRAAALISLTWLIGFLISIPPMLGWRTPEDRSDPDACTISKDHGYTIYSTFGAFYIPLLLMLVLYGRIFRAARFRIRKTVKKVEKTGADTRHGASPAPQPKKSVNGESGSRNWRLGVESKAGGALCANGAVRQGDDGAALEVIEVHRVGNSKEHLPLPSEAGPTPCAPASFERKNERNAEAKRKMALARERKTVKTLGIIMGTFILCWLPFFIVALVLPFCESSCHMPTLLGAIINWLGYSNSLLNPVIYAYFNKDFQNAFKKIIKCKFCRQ
As to the kind of experiment: 5-HT1A receptor radioligand competition assay (SPA). The test is classed as binding.

Sequence of 5-HT2A receptor (P28223 whole entry): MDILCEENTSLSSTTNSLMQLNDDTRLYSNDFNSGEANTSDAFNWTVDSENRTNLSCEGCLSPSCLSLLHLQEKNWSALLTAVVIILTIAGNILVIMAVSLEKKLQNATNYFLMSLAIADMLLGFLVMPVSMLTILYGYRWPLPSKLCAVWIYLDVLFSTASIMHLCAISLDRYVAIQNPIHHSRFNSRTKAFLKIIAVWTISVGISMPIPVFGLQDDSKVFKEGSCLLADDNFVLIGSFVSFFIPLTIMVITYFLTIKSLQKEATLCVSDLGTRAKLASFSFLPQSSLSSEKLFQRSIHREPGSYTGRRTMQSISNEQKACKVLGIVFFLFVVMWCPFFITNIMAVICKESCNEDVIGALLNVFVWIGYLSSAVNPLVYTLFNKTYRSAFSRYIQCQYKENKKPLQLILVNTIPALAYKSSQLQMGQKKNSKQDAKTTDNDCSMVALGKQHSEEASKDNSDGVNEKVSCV

Consider `C[C@@H](N)[C@H]1CC[C@H](C(=O)Nc2ccncc2)CC1` [Y-27632, reference compound], for which the “neurite outgrowth (β-III-tubulin immunofluorescence) compared to negative control” value in test [1] is given as “strong signs of neurite outgrowth”.

One may read the Ki as the dissociation constant of the complex between target and ligand, obtained from inhibition or displacement. As for `CC(Cc1ccc2c(c1)OCO2)N(C)CCc1c[nH]c2ccccc12` (stereo not shown) [A(XXXII)], in test [1], the “neurite outgrowth (β-III-tubulin immunofluorescence) compared to negative control” value was “strong signs of neurite outgrowth”. Moreover, the Ki on 5-HT2A receptor and on 5-HT1A receptor was 465 nM each time.
